What was measured:
[1] = system: neurons in hippocampal CA1 region and cortex; experiment: Brain histology (Nissl and Fluoro-Jade B staining) at 72 hours post-resuscitation; type: in vivo, rat; conditions: for number of neurons in the hippocampus (Nissl staining), % of control values: 10-minute cardiac arrest; for degenerating cells in the cortex (FJB staining), fold increase compared with control value: vehicle seven-fold
Protocol: (§1) The study was conducted using adult male Sprague-Dawley rats (400-500 g, Charles River Laboratories, Wilmington, MA) utilizing procedures for asphyxia-induced cardiac arrest and cardiopulmonary resuscitation (CPR). Briefly, asphyxial cardiac arrest was induced by stopping ventilation after injecting vecuronium bromide (2 mg/kg). After 10 or 14 minutes of asphyxia-cardiac arrest, ventilation was restarted with chest compressions. Typically, rats achieve ROSC within 1 minute after the initiation of CPR. Rats were extubated 2 hours after ROSC. Blood samples were collected from the femoral artery at baseline and multiple time points during cardiac arrest or postresuscitation. Plasma was separated using centrifugation at 1,000×g for 10 minute and stored at −80° C. Brain tissue was harvested from animals that survived for 72 hours after perfusion with saline and fixed with 4% paraformaldehyde.
Plasma phospholipids were analyzed using plasma samples obtained from humans and rats following our established high-performance liquid chromatography-mass spectrometry (HPLC-MS) method. For brain histology, serial coronal sections (14 μm) were prepared from the fixed brain tissue using a cryostat (CM1900, Leica, Germany). The sections were used for Nissl staining to determine the number of surviving neurons in hippocampal CA1 region or Fluoro-Jade B (FJB) staining to count the number of degenerative neurons in the cortex.

[2] = system: rats after 10 minutes of asphyxia-induced cardiac arrest; experiment: Rat survival and neurologic function (mNDS) after 10-minute asphyxia-induced cardiac arrest with LPC supplementation; type: in vivo; conditions: for rat survival for 72 hr after resuscitation (Kaplan-Meier) / modified neurologic deficit score (mNDS) at 24 hours / modified neurologic deficit score (mNDS) at 72 hours: 10-minute cardiac arrest; for rat survival for 72 hr after resuscitation (Kaplan-Meier): 6 mg/kg LPC via femoral vein 1 minute after ROSC, vs vehicle; for modified neurologic deficit score (mNDS) at 24 hours / modified neurologic deficit score (mNDS) at 72 hours: surviving rats, 6 mg/kg, 100% = perfect score
Protocol: as §1
To test the beneficial effect of LPC supplementation, LPC (18:1) was first administered because it was the only commercially available species out of the four LPC species decreased after 10 minute of cardiac arrest. The study was then extended to test the effect of attached fatty acid by including custom-made LPC (22:6) and LPC (18:0). Different groups of control rats for each set of experiment for accurate assessment were used. Rats were randomized into each group (n=12). Baseline characteristics of rats were not different between the groups in each set of experiment.
The LPC species mixed with 0.5% bovine serum albumin (BSA) in phosphate-buffered saline (0.5 mL) was injected over 1 minute via the femoral vein cannula beginning 1 minute after ROSC, with vehicle group injected with only BSA. 6 mg/kg of LPC was injected, because this dosage preserved LPC level in post-resuscitation plasma for 2 hours after 10-minute cardiac arrest. The purities of the injected LPC species were over 98%.
Survival was followed for 72 hours with brain function evaluated in a blinded manner using the modified neurologic deficit score (mNDS) after resuscitation for surviving rats. The mNDS is expressed as percentage, with 100% representing perfect score.
Kaplan-Meier curves compared survival between the LPC and vehicle groups using the Wilcoxon test. For phospholipids levels, Mann-Whitney U test was used to compare two independent groups. Repeated measures analysis of variance was used to compare the vital signs between two groups. Spearman correlation coefficients were calculated to evaluate the correlation between blood pH and plasma LPC levels. For changes in plasma LPC levels postreperfusion, we performed Jonckheere-Terpstra test. Statistical analyses were performed using the JMP software (Version 14.2, SAS Institute, Cary, NC). p values of less than 0.05 were considered statistically significant. Data were expressed as the mean±se of the mean.

[3] = system: rats after 12 minutes of asphyxia-induced cardiac arrest; experiment: 12 minutes of asphyxia-induced cardiac arrest rat model (survival, plasma troponin I, SSEP); type: in vivo; conditions: 12 minutes of cardiac arrest
Protocol: as §1
The therapeutic effects of LPC species as well as combination of all three species was then tested using 12 minutes of cardiac arrest, which induces more severe injury than 10 minutes of cardiac arrest. […] Also compared was the plasma troponin I level to assess the effects of individual LPC species LPC (18:0), LPC (18:1), LPC (22:6) and the LPC Combination for heart function (see FIG. 8 and FIG. 9 respectively). […] Since these rats are severely injured and mNDS are not appropriate to measure their brain function, we used SSEP to compare the brain function between LPC (18:1) and LPC combination groups.

[4] = diet supplemented with LPC; cited from earlier work
lung = experiment: Lung wet-to-dry weight ratio after cardiac arrest; type: in vivo, rat
Protocol: (§2) The beneficial effects of LPC (18:2), LPC(20:4), and LPC (16:0) for their beneficial effects using the same cardiac arrest model were also tested. […] Furthermore, none of the LPC (18:2) treated rats were able to walk whereas 40 to 50% of LPC (22:6) and LPC (18:1) treated rats were able to walk.

heart = experiment: Heart ejection fraction at 2 h after resuscitation; type: in vivo, rat; conditions: 10 min cardiac arrest per FIG. 13 legend
Protocol: as §2

neuronal cells = conditions: rats supplemented with LPC; cited from earlier work
IL-10 = experiment: Plasma IL-10 level, 10 minutes of asphyxia-induced cardiac arrest rat model; type: in vivo; conditions: after 10 minutes of cardiac arrest
Protocol: (§3) Using the 10 minutes of asphyxia-induced cardiac arrest rat model, supplementing LPC (18:1) decreased inflammatory IL-6′ levels and increased the anti-inflammatory IL-10 levels in rat plasma after 10 minutes of cardiac arrest (FIG. 15A and FIG. 15B).

IL-6 = experiment: Plasma IL-6 level, 10 minutes of asphyxia-induced cardiac arrest rat model; type: in vivo; conditions: after 10 minutes of cardiac arrest
Protocol: as §3

Row | Compound | number of neurons in the hippocampus (Nissl staining), % of control values [1] [%] | degenerating cells in the cortex (FJB staining), fold increase compared with control value [1] | rat survival for 72 hr after resuscitation (Kaplan-Meier) [2] | modified neurologic deficit score (mNDS) at 24 hours [2] [%] | modified neurologic deficit score (mNDS) at 72 hours [2] [%] | plasma troponin I level [3] | also measured
1 | lysophosphatidylcholine (22:6) [LPC (22:6)] | 88 | decreased to a three-fold increase | improved rat survival | 51 | 86 | only the LPC Combination showed a decrease | cognitive functions [4]: improved their cognitive functions
2 | lysophosphatidylcholine (18:0) [LPC (18:0)] |  |  | no improved outcomes |  |  | only the LPC Combination showed a decrease | effect on neuronal cellular morphology [1]: minimal effect
3 | lysophosphatidylcholine (18:2) [LPC (18:2)] |  |  |  |  |  |  | neuroprotective effect (mNDS at 48 hours and 72 hours) ([2]; 10 min cardiac arrest per FIG. 12 legend): not as good as LPC (18:1) or LPC (22:6); rat survival (Kaplan-Meier) ([2]; "same cardiac arrest model", 10 min cardiac arrest per FIG. 11 legend): significantly improve survival; treated rats able to walk ([2]; after cardiac arrest): none; lung wet-to-dry ratio (lung): Reduced; heart ejection fraction (heart): improved
4 | CCCCCCCCCCCCCC(=O)OC[C@@H](O)COP(=O)([O-])OCC[N+](C)(C)C [LPC (14:0)] |  |  |  |  |  |  | protection of neuronal cells after brain ischemia (neuronal cells): provided protecting to neuronal cells
5 | lysophosphatidylcholine (18:1) [LPC (18:1)] | 86 | decreased to a three-fold increase | significantly improved rat survival | 66 | 76 | only the LPC Combination showed a decrease | anti-inflammatory IL-10 levels in rat plasma (IL-10): increased; inflammatory IL-6 levels in rat plasma (IL-6): decreased; rat survival (Kaplan-Meier) [3]: most significantly improved rat survival; return of the SSEP signal (brain function) [3]: did not happen

Source: patent US20250000882A1, “LYSOPHOSPHATIDYLCHOLINE COMBINATIONS AS A THERAPY TO TREAT CARDIAC ARREST” (THE FEINSTEIN INSTITUTES FOR MEDICAL RESEARCH, priority 2021, published 2025)
